Reference: US20020068759A1, “Medicament” (SmithKline Beecham plc, priority 1990, published 2002)
Structures can show the parent of a compound that is named as a salt.

Row | Compound | melting point
1 | CCCCc1nc2cc(Br)cc(C(=O)O)c2n1Cc1ccccc1Cl [Example 4, 5-Bromo-2-n-butyl-1-(2-chlorophenyl)methyl-1H-benzimidazole-7-carboxylic Acid] | 254 to 255 °C
2 | CCCSc1ncc(C[C@H](NC(=O)CCC)C(=O)O)n1Cc1ccccc1Cl [Example 1, 3-[(2-Chlorophenyl)methyl]-2-propylthio-N-butyrylhistidine] | 178 to 181 °C
3 | CCCCc1ncc(CC(Cc2ccccc2)C(=O)O)n1Cc1ccccc1Cl (stereo not drawn) (as salt: hydrochloride) [Example 2, 3-[2-n-Butyl-1-{(2-chlorophenyl)methyl}-1H-imidazol-5-yl]-2-benzylpropanoic Acid] | 118 to 120 °C
